According to patent publication US20220142958A1, “MEDICINAL COMPOSITION HAVING EXCELLENT STABILITY” (EA Pharma Co., Ltd., priority 2019, published 2022):

Columns and labels:
[1] = test system: SHPT patients on maintenance hemodialysis; test: Phase I/II clinical trial, repeated administration; assay type: in vivo, human; conditions: for percentage decrease in the serum iPTH concentration: Day 22 (three days after the ninth administration)
Description: Targeting SHPT patients on maintenance hemodialysis, pharmacokinetics, pharmacodynamics and safety upon single or repeated intravenous administration of Compound A1 were examined by conducting a double-blind test using a placebo as a control.
Repeated administration: Based on the clinically effective dose calculated in Reference Example 5, the doses were given in 3 steps, namely, 0.05 mg, 0.1 mg, and 0.2 mg. The trial drug was (intravenously) infused from the venous side of the dialysis circuit before the end of dialysis three times a week for 22 days (total of 9 times) starting from the first day of administration of the trial drug. Here, the trial drug was administered by diluting a required dose taken from the Compound A1 vial formulation prepared as follows with sterilized water for injection, and filling a syringe with the resultant in accordance with the dose to be administered.
Each item was evaluated according to the predetermined evaluation schedule.
A vial formulation encapsulating 1 mg of Compound A1 in terms of a dehydrate, and sodium chloride, disodium hydrogen phosphate dodecahydrate, and sodium dihydrogen phosphate dihydrate as additives in 10 ml of sterilized water for injection

[2] = Example 3: storage stability of formulations at 5° C., 15° C. and 25° C.; assay type: physicochemical
Description: Compound A1 weighed so as to have the composition shown in Table 7 below and each of the buffer solutions were dissolved in water for injection to obtain a uniform solution. These solutions were filled in glass ampoules and sealed. Each pH in Example 3 was measured during each storage period using a pH meter HM-30R (manufactured by DKK-TOA CORPORATION).
The residual ratio of Compound A1 and the production of each of the decomposition products at 5° C., 15° C., and 25° C. were evaluated according to a test method described below.
Test method: In the solution after the storage, the residual ratio was analyzed according to a normal method using a liquid chromatography apparatus (ACQUITY UPLC H-Class; measurement wavelength: 210 nm). At this time, XSELECT CSH C18 (2.1 mm×100 mm, 3.5 μm, manufactured by Waters Corporation) was used as a column.
Calculation for obtaining the residual ratio (%) of Compound A1 and each of the decomposition products (%) during each storage period is as follows.
Residual ratio (%) of Compound A1=peak area of Compound A1 in sample solution/sum of peak area of sample solution×100
Each of decomposition products (%)=peak area of each of decomposition products in sample solution/sum of peak area of sample solution×100

[3] = test system: healthy Japanese male adults; test: Phase I clinical trial (P1), single intravenous dose; assay type: in vivo, human
Description: Thirty-two healthy Japanese male adults were given a single intravenous dose of the test drug (Compound A1) at 0.01 mg, 0.1 mg, 1.0 mg or 2.5 mg in a fasted state to study the pharmacokinetics, pharmacodynamics and safety by a double-blind test using a placebo as a control. Here, the trial drug was administered by diluting a required dose taken from the Compound A1 vial formulation prepared as follows with sterilized water for injection, and filling a syringe with the resultant in accordance with the dose to be administered.
A vial formulation encapsulating 100 mg of Compound A1 in terms of a dehydrate, and sodium chloride, disodium hydrogen phosphate dodecahydrate, and sodium dihydrogen phosphate dihydrate as additives in 10 ml of sterilized water for injection

serum iPTH = test: PK and PK/PD analysis of P1 (three-compartment model, indirect response model incorporating rebound); assay type: in vivo, human; conditions: ±standard error
Description: A PK/PD analysis was conducted to estimate the clinically effective dose based on the results from P1. The dose of 2.5 mg seemed to be excessive and thus was eliminated from the analysis. PK (mean plasma concentration) and PD (mean iPTH level normalized by the levels of the placebo group and the 0-hour level) data of the doses of 0.01 mg, 0.1 mg and 1 mg were used. An indirect response model incorporating rebound was used for the PK/PD analysis.
Based on the results of PK of the three given doses (0.01 mg, 0.1 mg, and 1 mg) in P1, the three given doses were simultaneously analyzed using a three-compartment model to calculate the PK parameters (FIG. 2-5 and Table 16-2).
Using the calculated PK parameters as an input function, PK/PD analysis was performed using an indirect response model incorporating rebound (FIG. 2-6) to calculate the EC50 value in healthy adults (FIG. 2-7 and Table 16-3).

[4] = single intravenous doses of 0.01, 0.1, 1.0 and 2.5 mg

What does the source list for Cc1c(Cl)cc(S(=O)(=O)[O-])cc1NC(=O)NC[C@H](N)C(=O)O.[Na+] [Compound A1, sodium 3-{[(2S)-2-amino-2-carboxyethyl]carbamoylamino}-5-chloro-4-methylbenzenesulfonate]?
percentage decrease in the serum iPTH concentration ([1]; 0.05 mg dose group): 8%; percentage decrease in the serum iPTH concentration ([1]; 0.1 mg dose group): 25%; percentage decrease in the serum iPTH concentration ([1]; 0.2 mg dose group): 36%; accumulating property ([1]; repeated administration): no accumulating property; elimination by dialysis ([1]; repeated administration): rapidly eliminated by dialysis; trough concentration before the dialysis following the longest interval ([1]; repeated administration): generally constant; decrease in the corrected Ca ([1]; repeated administration, 0.05 mg dose group (mild)): observed; decrease in the corrected Ca ([1]; repeated administration, 0.1 mg dose group): not observed; decrease in the corrected Ca ([1]; repeated administration, 0.2 mg dose group (mild)): observed; form present in the plasma ([1]; repeated administration, three times a week for 22 days): mainly as an unchanged substance; storage stability ([2]; formulations in the pH range of 6.4 to 6.9, 5° C., for 30 months): excellent storage stability; storage stability ([2]; formulations in the pH range of 6.4 to 6.9, 15° C., for 12 months): excellent storage stability; storage stability ([2]; formulations in the pH range of 6.4 to 6.9, 25° C. (60% RH), for 6 months): excellent storage stability; serum iPTH concentration compared to that before the administration ([3]; 0.01 mg and higher dose groups): decreased; safety (side effects) ([3]; 1.0 mg and higher dose groups): non-severe and mild side effects such as vomiting; duration of decreased serum iPTH concentration ([3]; relation to given dose): extended with the increase in the given dose; form excreted into the urine ([3]; single intravenous doses): mostly as unchanged substances; main elimination pathway of the unchanged substance ([3]; single intravenous doses): renal excretion; elimination from the plasma [3, 4]: rapidly eliminated; form present in the plasma [3, 4]: generally unchanged substances; Emax (serum iPTH; healthy adults, indirect response model incorporating rebound): 0.920 ± 0.027 ratio; K12 (serum iPTH; three-compartment model): 0.658 ± 0.136 h⁻¹; K13 (serum iPTH; three-compartment model): 4.42 ± 1.80 h⁻¹; K21 (serum iPTH; three-compartment model): 0.819 ± 0.049 h⁻¹; K31 (serum iPTH; three-compartment model): 6.89 ± 1.33 h⁻¹; Ke (serum iPTH; three-compartment model): 1.28 ± 0.15 h⁻¹
